From publication PMC5218480 (PLoS ONE, 2017)

Test system: MV-4-11 cells
Assay: Gene expression microarray analysis (Affymetrix PrimeView) and GSEA
Format: cell-based, human
Design: RFU PODN (11730768_x_at) / Fold change /veh PODN (11730768_x_at) / RFU LINC00158 (11744669_a_at) / Fold change /veh LINC00158 (11744669_a_at) / RFU DUSP10 (11751237_a_at) / Fold change /veh DUSP10 (11751237_a_at) / RFU ID3 (11757404_x_at) / Fold change /veh ID3 (11757404_x_at) / RFU PLEKHG5 (11737974_s_at) / Fold change /veh PLEKHG5 (11737974_s_at) / RFU LRRC4B (11730491_at) / Fold change /veh LRRC4B (11730491_at) / RFU GIMAP4 (11747438_a_at) / Fold change /veh GIMAP4 (11747438_a_at) / RFU KRT8 (11758183_x_at) / Fold change /veh KRT8 (11758183_x_at) / RFU CNN1 (11734310_a_at) / Fold change /veh CNN1 (11734310_a_at) / RFU VPS37D (11726825_at) / Fold change /veh VPS37D (11726825_at) / RFU C10orf10 (11716522_x_at) / Fold change /veh C10orf10 (11716522_x_at) / RFU KIR2DL2 /// KIR2DL4 /// KIR2DL5A /// KIR2DL5B /// KIR2DS1 /// KIR2DS2 /// KIR2DS3 /// KIR2DS4 /// KIR3DL3 /// KIR3DL3 /// KIR3DS1 (11738374_at) / Fold change /veh KIR2DL2 /// KIR2DL4 /// KIR2DL5A /// KIR2DL5B /// KIR2DS1 /// KIR2DS2 /// KIR2DS3 /// KIR2DS4 /// KIR3DL3 /// KIR3DL3 /// KIR3DS1 (11738374_at) / RFU C1QL1 (11718748_at) / Fold change /veh C1QL1 (11718748_at) / RFU TMPRSS4 (11747572_a_at) / Fold change /veh TMPRSS4 (11747572_a_at) / RFU HAMP (11756126_x_at) / Fold change /veh HAMP (11756126_x_at) / RFU RNFT2 (11725882_a_at) / Fold change /veh RNFT2 (11725882_a_at) / RFU NR4A2 (11747474_a_at) / Fold change /veh NR4A2 (11747474_a_at) / RFU ABCC12 (11746883_a_at) / Fold change /veh ABCC12 (11746883_a_at) / RFU TMEM136 (11760407_x_at) / Fold change /veh TMEM136 (11760407_x_at) / RFU CLDN22 /// WWC2 (11732394_at) / Fold change /veh CLDN22 /// WWC2 (11732394_at) / RFU HLA-DPB1 (11760878_x_at) / Fold change /veh HLA-DPB1 (11760878_x_at) / RFU SPINT1 (11716480_a_at) / Fold change /veh SPINT1 (11716480_a_at) / RFU GAP43 (11754022_s_at) / Fold change /veh GAP43 (11754022_s_at) / RFU A4GNT (11735810_at) / Fold change /veh A4GNT (11735810_at) / RFU PRB3 (11715151_x_at) / Fold change /veh PRB3 (11715151_x_at) / RFU TUBB4B (11761932_at) / Fold change /veh TUBB4B (11761932_at) / RFU CAPN14 (11732068_a_at) / Fold change /veh CAPN14 (11732068_a_at) / RFU TMCC2 (11721928_a_at) / Fold change /veh TMCC2 (11721928_a_at) / RFU IRGQ (11745062_a_at) / Fold change /veh IRGQ (11745062_a_at) / RFU FAM174B (11720279_a_at) / Fold change /veh FAM174B (11720279_a_at) / RFU TMPRSS4 (11748680_a_at) / Fold change /veh TMPRSS4 (11748680_a_at) / RFU FAM212B (11763350_a_at) / Fold change /veh FAM212B (11763350_a_at) / RFU PLEKHG5 (11743358_a_at) / Fold change /veh PLEKHG5 (11743358_a_at) / RFU ZSCAN30 (11745921_a_at) / Fold change /veh ZSCAN30 (11745921_a_at) / RFU CMKLR1 (11741424_a_at) / Fold change /veh CMKLR1 (11741424_a_at) / RFU LOC101060620 /// MAPK8IP1 (11723275_at) / Fold change /veh LOC101060620 /// MAPK8IP1 (11723275_at) / RFU SPTSSB (11747773_x_at) / Fold change /veh SPTSSB (11747773_x_at) / RFU PRSS12 (11739890_at) / Fold change /veh PRSS12 (11739890_at) / RFU BIN1 (11741810_x_at) / Fold change /veh BIN1 (11741810_x_at) / RFU WNT11 (11732464_a_at) / Fold change /veh WNT11 (11732464_a_at) / RFU C10orf10 (11716521_a_at) / Fold change /veh C10orf10 (11716521_a_at) / RFU C5orf56 (11738089_at) / Fold change /veh C5orf56 (11738089_at) / RFU CYB561 (11721691_x_at) / Fold change /veh CYB561 (11721691_x_at) / RFU ANKRD19P (11752326_a_at) / Fold change /veh ANKRD19P (11752326_a_at) / RFU OR2T12 /// OR2T33 /// OR2T8 (11738714_s_at) / Fold change /veh OR2T12 /// OR2T33 /// OR2T8 (11738714_s_at) / RFU VCAN (11748164_a_at) / Fold change /veh VCAN (11748164_a_at) / RFU JSRP1 (11732532_at) / Fold change /veh JSRP1 (11732532_at) / RFU KRTAP10-11 (11738290_x_at) / Fold change /veh KRTAP10-11 (11738290_x_at) / RFU MYO3A (11730013_a_at) / Fold change /veh MYO3A (11730013_a_at) / RFU EBF3 (11725865_a_at) / Fold change /veh EBF3 (11725865_a_at) / RFU CAMK2N1 (11719241_x_at) / Fold change /veh CAMK2N1 (11719241_x_at) / RFU C5orf56 (11738088_a_at) / Fold change /veh C5orf56 (11738088_a_at) / RFU OLFML3 (11715873_a_at) / Fold change /veh OLFML3 (11715873_a_at) / RFU LOC100653217 /// NTM (11731650_a_at) / Fold change /veh LOC100653217 /// NTM (11731650_a_at) / RFU MAPK11 (11762145_a_at) / Fold change /veh MAPK11 (11762145_a_at) / RFU FIZ1 (11724087_x_at) / Fold change /veh FIZ1 (11724087_x_at) / RFU OASL (11726364_x_at) / Fold change /veh OASL (11726364_x_at) / RFU SOX15 (11748057_x_at) / Fold change /veh SOX15 (11748057_x_at) / RFU CD79A (11719716_a_at) / Fold change /veh CD79A (11719716_a_at) / RFU HIST1H1D (11736915_at) / Fold change /veh HIST1H1D (11736915_at) / RFU CASKIN2 (11723855_a_at) / Fold change /veh CASKIN2 (11723855_a_at) / RFU LOC730098 (11760151_x_at) / Fold change /veh LOC730098 (11760151_x_at) / RFU OR4N2 (11742367_at) / Fold change /veh OR4N2 (11742367_at) / RFU PRRT2 (11749266_a_at) / Fold change /veh PRRT2 (11749266_a_at) / RFU SNX32 (11753110_a_at) / Fold change /veh SNX32 (11753110_a_at) / RFU CDHR5 (11726645_a_at) / Fold change /veh CDHR5 (11726645_a_at) / RFU RCAN1 (11760418_a_at) / Fold change /veh RCAN1 (11760418_a_at) / RFU FAM167A (11723789_a_at) / Fold change /veh FAM167A (11723789_a_at) / RFU FAM26E (11764081_at) / Fold change /veh FAM26E (11764081_at) / RFU ISYNA1 (11749810_s_at) / Fold change /veh ISYNA1 (11749810_s_at) / RFU ACY1 (11761880_at) / Fold change /veh ACY1 (11761880_at) / RFU 11764098_at / Fold change /veh 11764098_at / RFU SAMD14 (11745864_x_at) / Fold change /veh SAMD14 (11745864_x_at) / RFU NPB (11741838_a_at) / Fold change /veh NPB (11741838_a_at) / RFU TMPRSS6 (11731388_a_at) / Fold change /veh TMPRSS6 (11731388_a_at) / RFU KRTAP10-2 (11738614_at) / Fold change /veh KRTAP10-2 (11738614_at) / RFU ARHGAP8 /// PRR5-ARHGAP8 (11727945_x_at) / Fold change /veh ARHGAP8 /// PRR5-ARHGAP8 (11727945_x_at) / RFU KRTAP5-7 /// NADSYN1 (11734609_at) / Fold change /veh KRTAP5-7 /// NADSYN1 (11734609_at) / RFU RASL12 (11751679_a_at) / Fold change /veh RASL12 (11751679_a_at) / RFU CDKN2B (11736163_a_at) / Fold change /veh CDKN2B (11736163_a_at) / RFU PRF1 (11729649_at) / Fold change /veh PRF1 (11729649_at) / RFU, ZNF638 /// ZNF638-IT1 / Fold change vs veh, ZNF638 /// ZNF638-IT1 / RFU, PANK3 / Fold change vs veh, PANK3 / RFU, SH3YL1 / Fold change vs veh, SH3YL1 / RFU, ZEB2 / Fold change vs veh, ZEB2 / RFU, NRIP1 / Fold change vs veh, NRIP1 / RFU, PTTG1IP / Fold change vs veh, PTTG1IP / RFU, CAPN2 / Fold change vs veh, CAPN2 / RFU, MED14 / Fold change vs veh, MED14 / RFU, SNORA58 / Fold change vs veh, SNORA58 / RFU, C1orf63 / Fold change vs veh, C1orf63 / RFU, LRRFIP1 / Fold change vs veh, LRRFIP1 / RFU, NDUFAF7 / Fold change vs veh, NDUFAF7 / RFU, SLC12A2 / Fold change vs veh, SLC12A2 / RFU, IBTK / Fold change vs veh, IBTK / RFU, ESF1 / Fold change vs veh, ESF1 / Fold change vs veh, TMEM50B / RFU, TAOK1 / Fold change vs veh, TAOK1 / RFU, ACBD3 / Fold change vs veh, ACBD3 / RFU, TMA16 / Fold change vs veh, TMA16 / RFU, RWDD3 / Fold change vs veh, RWDD3 / RFU, BCAT1 / Fold change vs veh, BCAT1 / RFU, EDEM3 / Fold change vs veh, EDEM3 / RFU, TMEM33 / Fold change vs veh, TMEM33 / RFU, WDR75 / Fold change vs veh, WDR75 / RFU, AHCTF1 / Fold change vs veh, AHCTF1 / RFU, TFRC / Fold change vs veh, TFRC / RFU, ZDHHC17 / Fold change vs veh, ZDHHC17 / RFU, NOM1 / Fold change vs veh, NOM1 / RFU, ARL8B / Fold change vs veh, ARL8B / RFU, ZBTB11 / Fold change vs veh, ZBTB11 / RFU, TAMM41 / Fold change vs veh, TAMM41 / RFU, KIAA1704 /// LOC100996395 / Fold change vs veh, KIAA1704 /// LOC100996395 / RFU, ING1 / Fold change vs veh, ING1 / RFU, TRMT61B / Fold change vs veh, TRMT61B / RFU, FUBP3 / Fold change vs veh, FUBP3 / RFU, TP53 / Fold change vs veh, TP53 / RFU, TNKS2 / Fold change vs veh, TNKS2 / RFU, ZFP14 / Fold change vs veh, ZFP14 / RFU, ACTR2 / Fold change vs veh, ACTR2 / RFU, PPP3R1 / Fold change vs veh, PPP3R1 / RFU, PIK3R1 / Fold change vs veh, PIK3R1 / RFU, HNRNPA1 / Fold change vs veh, HNRNPA1 / RFU, RNF170 / Fold change vs veh, RNF170 / RFU, ZNF28 / Fold change vs veh, ZNF28 / RFU, RNGTT / Fold change vs veh, RNGTT / RFU, OGT / Fold change vs veh, OGT / RFU, BRD1 / Fold change vs veh, BRD1 / RFU, MARS / Fold change vs veh, MARS / RFU, ZNF655 / Fold change vs veh, ZNF655 / RFU, FAHD1 / Fold change vs veh, FAHD1 / RFU, BDP1 / Fold change vs veh, BDP1 / RFU, LRRCC1 / Fold change vs veh, LRRCC1 / RFU, ARID1A / Fold change vs veh, ARID1A / RFU, ZNF146 / Fold change vs veh, ZNF146 / RFU, ZNF330 / Fold change vs veh, ZNF330 / RFU, GPN3 / Fold change vs veh, GPN3 / RFU, C9orf123 / Fold change vs veh, C9orf123 / RFU, N4BP2L2 / Fold change vs veh, N4BP2L2 / RFU, ARFIP1 / Fold change vs veh, ARFIP1 / RFU, FAM179B / Fold change vs veh, FAM179B / RFU, BCL10 / Fold change vs veh, BCL10 / RFU, UHRF1BP1L / Fold change vs veh, UHRF1BP1L / RFU, BET1 / Fold change vs veh, BET1 / RFU, CNOT2 / Fold change vs veh, CNOT2 / RFU, ZNF268 / Fold change vs veh, ZNF268 / Fold change vs veh, ZNF507 / RFU, DGCR2 / Fold change vs veh, DGCR2 / RFU, WDSUB1 / Fold change vs veh, WDSUB1 / Fold change vs veh, HSP90B1 /// MIR3652 / RFU, ADSS / Fold change vs veh, ADSS / RFU, GK / Fold change vs veh, GK / RFU, ZNF148 / Fold change vs veh, ZNF148 / RFU, TAF9 / Fold change vs veh, TAF9 / RFU, SLC1A5 / Fold change vs veh, SLC1A5 / RFU, SLMO2 / Fold change vs veh, SLMO2 / RFU, ABCC4 / Fold change vs veh, ABCC4 / RFU, LOC101060439 /// RAP1B / Fold change vs veh, LOC101060439 /// RAP1B / RFU, RFX7 / Fold change vs veh, RFX7 / RFU, GTPBP10 / Fold change vs veh, GTPBP10 / RFU, CNEP1R1 / Fold change vs veh, CNEP1R1 / RFU, BIVM-ERCC5 /// ERCC5 / Fold change vs veh, BIVM-ERCC5 /// ERCC5 / RFU, ILF3 / Fold change vs veh, ILF3 / RFU 11762660_at / Fold change /veh 11762660_at / RFU VCAN (11757783_s_at) / Fold change /veh VCAN (11757783_s_at) / RFU DDX43 (11728927_at) / Fold change /veh DDX43 (11728927_at) / RFU KRT8 (11758188_x_at) / Fold change /veh KRT8 (11758188_x_at) / RFU NKD1 (11759106_at) / Fold change /veh NKD1 (11759106_at) / RFU SRD5A1 (11742802_a_at) / Fold change /veh SRD5A1 (11742802_a_at) / RFU TPSAB1 /// TPSB2 (11721975_s_at) / Fold change /veh TPSAB1 /// TPSB2 (11721975_s_at) / RFU GSTM3 (11746129_a_at) / Fold change /veh GSTM3 (11746129_a_at) / RFU IL23R (11737362_x_at) / Fold change /veh IL23R (11737362_x_at) / RFU TMEM51 (11727254_a_at) / Fold change /veh TMEM51 (11727254_a_at) / RFU PIWIL2 (11732686_x_at) / Fold change /veh PIWIL2 (11732686_x_at) / RFU ORM1 (11744905_x_at) / Fold change /veh ORM1 (11744905_x_at) / RFU CCDC152 (11743942_at) / Fold change /veh CCDC152 (11743942_at) / RFU ECM1 (11717891_a_at) / Fold change /veh ECM1 (11717891_a_at) / RFU IL23R (11748794_a_at) / Fold change /veh IL23R (11748794_a_at) / RFU TNFAIP8L3 (11732012_x_at) / Fold change /veh TNFAIP8L3 (11732012_x_at) / RFU MBOAT4 (11741988_at) / Fold change /veh MBOAT4 (11741988_at) / RFU 11764193_at / Fold change /veh 11764193_at / RFU TMEM53 (11763286_at) / Fold change /veh TMEM53 (11763286_at) / RFU MAGEB2 (11727129_at) / Fold change /veh MAGEB2 (11727129_at) / RFU TMEM200A (11744735_a_at) / Fold change /veh TMEM200A (11744735_a_at) / RFU CCDC152 (11751479_a_at) / Fold change /veh CCDC152 (11751479_a_at) / RFU FAM211A (11726209_a_at) / Fold change /veh FAM211A (11726209_a_at) / RFU RGS16 (11746705_a_at) / Fold change /veh RGS16 (11746705_a_at) / RFU VCAN (11755009_s_at) / Fold change /veh VCAN (11755009_s_at) / RFU RHOB (11743442_s_at) / Fold change /veh RHOB (11743442_s_at) / RFU RGS16 (11720943_a_at) / Fold change /veh RGS16 (11720943_a_at) / RFU RGS16 (11720944_at) / Fold change /veh RGS16 (11720944_at) / RFU, VPS4B / Fold change vs veh, VPS4B / RFU, CREB1 / Fold change vs veh, CREB1 / RFU, DNAJC13 / Fold change vs veh, DNAJC13 / RFU, GNAQ / Fold change vs veh, GNAQ / RFU, CDK5R1 / Fold change vs veh, CDK5R1 / RFU, ZRANB3 / Fold change vs veh, ZRANB3 / RFU, CUL4A / Fold change vs veh, CUL4A / RFU, CCNY / Fold change vs veh, CCNY / RFU, UFL1 / Fold change vs veh, UFL1 / RFU, COG3 / Fold change vs veh, COG3 / RFU, DIAPH2 / Fold change vs veh, DIAPH2 / RFU, SKA2 / Fold change vs veh, SKA2 / RFU, AFF3 / Fold change vs veh, AFF3 / RFU, LMF1 / Fold change vs veh, LMF1 / RFU, IPO11 / Fold change vs veh, IPO11 / RFU, DFFB / Fold change vs veh, DFFB / RFU, FOXP1 / Fold change vs veh, FOXP1 / RFU, CARD8 / Fold change vs veh, CARD8 / RFU, STRN3 / Fold change vs veh, STRN3 / RFU, ADK / Fold change vs veh, ADK / RFU, RASSF2 / Fold change vs veh, RASSF2 / RFU, WIPF1 / Fold change vs veh, WIPF1 / RFU, LARP1B / Fold change vs veh, LARP1B / RFU, RASA1 / Fold change vs veh, RASA1 / RFU, RB1 / Fold change vs veh, RB1 / RFU, PPFIA1 / Fold change vs veh, PPFIA1 / RFU, MAT2A / Fold change vs veh, MAT2A / RFU, CCT5 / Fold change vs veh, CCT5 / RFU, WDR92 / Fold change vs veh, WDR92 / RFU, CUX1 / Fold change vs veh, CUX1 / RFU, TTC7A / Fold change vs veh, TTC7A / RFU, TMEM135 / Fold change vs veh, TMEM135 / RFU, DEPTOR / Fold change vs veh, DEPTOR / RFU, CPM / Fold change vs veh, CPM / RFU, DNAJB6 / Fold change vs veh, DNAJB6 / RFU, CACNA2D3 / Fold change vs veh, CACNA2D3 / RFU, DTX4 / Fold change vs veh, DTX4 / RFU, TFCP2 / Fold change vs veh, TFCP2 / RFU, GMCL1 /// GMCL1P1 / Fold change vs veh, GMCL1 /// GMCL1P1 / RFU, AEBP2 / Fold change vs veh, AEBP2 / RFU, SNHG1 /// SNORD22 /// SNORD25 /// SNORD26 /// SNORD27 /// SNORD28 /// SNORD29 /// SNORD31 / Fold change vs veh, SNHG1 /// SNORD22 /// SNORD25 /// SNORD26 /// SNORD27 /// SNORD28 /// SNORD29 /// SNORD31 / Fold change (Aza/veh), C12orf56 (ProbeSet 11735607_a_at) / Fold change (ACY-1035/veh), C12orf56 (ProbeSet 11735607_a_at) / Fold change (Aza/veh), FGFR1OP (ProbeSet 11751329_s_at) / Fold change (ACY-1035/veh), FGFR1OP (ProbeSet 11751329_s_at) / Fold change (Aza/veh), VPS36 (ProbeSet 11739960_a_at) / Fold change (ACY-1035/veh), VPS36 (ProbeSet 11739960_a_at) / RFU SYPL1 (11715823_x_at) / Fold change /veh SYPL1 (11715823_x_at) / RFU IGFBP7 (11715501_s_at) / Fold change /veh IGFBP7 (11715501_s_at) / RFU REEP3 (11722064_at) / Fold change /veh REEP3 (11722064_at) / RFU IGLL1 (11728026_x_at) / Fold change /veh IGLL1 (11728026_x_at): dose or concentration left out as unconfirmed
Conditions: ProbeSet 11758397_s_at; LIST B

For `Nc1ncn([C@@H]2O[C@H](CO)[C@@H](O)[C@H]2O)c(=O)n1` [azacitidine], the “RFU, RNF170” value was 159.42 RFU.
